Values belong to the molecule of their own block, whether it stands above or below them.
Columns and labels:
[1] = tested on: pRB (phospho-ser780-Rb), total RB, Topo IIa and pHH3 in H2122 cells; assay: Cell cycle biomarker expression by immunoblotting in H2122 cells; type: cell-based, human
Procedure: Time Course Study: NCI-H441 and NCI-H2122 NSCLC cell lines are treated for 4 or 24 hours with 1 μM of Compound A and harvested to evaluate effects on cell cycle biomarker expression which includes the cell cycle inhibitors p21 and p27 as well as markers for cell cycle progression including phospho-histone H3 (pHH3) (a marker for M-phase), Topo 2A (a marker for S-phase), phospho_ser780-RB (a marker for G1 and, as well as, for CDK4/6 inhibition) and cyclin Dl. […] […] Cells are harvested after 24 hours of treatment and evaluated for expression of various cell cycle biomarkers by immunoblotting. […] RB is the direct kinase target of CDK4/6 so inhibition of pRB provides a direct measure of CDK4/6 inhibition. The inhibition of Topo IIA and pHH3 are indicative of the inhibition of cell cycle progression through S and M phases of the cell cycle, respectively. […] The same study is carried out in the H441 cell line. […] RB is the direct kinase target of CDK4/6 so inhibition of pRB provides a direct measure of CDK4/6 inhibition. The inhibition of Topo IIA and pHH3 are indicative of the inhibition of cell cycle progression through S and M phases of the cell cycle, respectively.

NCI-H2122 xenograft = assay: Human NCI-H2122 xenograft tumor growth in athymic nude mice; type: in vivo
Procedure: (§1) NCI-H2122 is a human adenocarcinoma non-small cell lung cancer cell line (ATCC® as CRL-5985). The cells are grown in culture media at 37° C. in 5% CO2 with humidity in the atmosphere. Cell culture media for NCI-H2122 is RPMI-1640 with 2 mM L-glutamine, 10 mM 2-[4-(2-hydroxyethyl)piperazin-1-yl]ethanesulfonic acid (HEPES), 1 mM sodium pyruvate, 4500 mg/L glucose, 1500 mg/L sodium bicarbonate, and 10% fetal bovine serum (FBS).
To evaluate in vivo efficacy 5×10^6 NCI-H2122 cells in a 1:1 Matrigel® mix (0.2 mL volume) are implanted by subcutaneous injection in the hind leg of 6-8 weeks of age athymic nude female mice (Harlan Laboratories). Just before implantation animals are irradiated ([…]). Mice are fed ad libitum on normal chow. Treatment is initiated with oral administration (gavage) of Compound A in 1% sodium carboxymethylcellulose (Na-CMC) in 0.25% Tween®-80, or Compound B in 1% hydroxyethyl cellulose (HEC) in phosphate buffer pH 2.0 or their respective vehicle in 0.2 mL volume when tumor size reaches to 150±50 mm^3. Compound A is administered at 5 or 8 mg/kg on a Wednesday, Friday, and Monday schedule (TIW) for 2 weeks and Compound B is administered at 25 or 50 mg/kg daily for 14 days.
Tumor growth and body weight are monitored over time to evaluate efficacy and signs of toxicity. Bidimensional measurements of tumors are performed twice a week and tumor volumes are calculated based on the following formula: (Tumor Volume)=[(L)×(W2)×(Π/6)] where L is mid-axis length and W is mid-axis width. Tumor volume data are transformed to a log scale to equalize variance across time and treatment groups. The log volume data are analyzed with a two-way repeated measures analysis of variance by time and treatment using the MIXED™ procedures in SAS™ software (version 8.2). The correlation model for the repeated measures is spatial power. Test Groups are: • 1: 1% HEC in 25 mM Phosphate Buffer, pH 2, QD×14, PO/1% CMC/0.25% Tween 80/0.05% Antifoam, /W-F-M×2, PO • 3: Compound B, 50 mg/kg, QD×14, PO • 4: Compound A, 5 mg/kg, W-F-M×2, PO • 5: Compound A, 8 mg/kg, W-F-M×2, PO • 7: Compound B, 50 mg/kg, QD×14, PO/Compound A, 5 mg/kg, W-F-M×2, PO • 8: Compound B, 50 mg/kg, QD×14, PO/Compound A, 8 mg/kg, W-F-M×2, PO Group 7 and a Group 9 were combined and labelled group 7, because they received the same treatment regimen contrary to testing procedures. […] Group 2 is not shown as it was Compound B monotreatment at the same treatment regimen as Compound B in Group 6 combination treatment.
Using the repeated measures analysis previously described, a contrast statement is used to test for an interaction effect on study day 27, using the two specific treatments that were combined (Group 7).

NCI-H441 = assay: Cell growth inhibition by CellTiter-Glo assay, NCI-H441; type: cell-based; conditions: Homo sapiens, Compound B alone, 48 hours
Procedure: (§2) The non-small cell lung cancer (NSCLC) lines NCI-H441 (ATCC® as HTB-174) and NCI-H2122 (ATCC® as CRL-5985) are grown in RPMI-1640 medium supplemented with 2 mM L-glutamine, 10 mM HEPS, 1 mM sodium pyruvate, 4500 mg/L glucose, 1500 mg/L sodium bicarbonate, and 10% fetal bovine serum (FBS) at 37° C. in 5% CO2 with humidity in the atmosphere. The cells are subcultured according to ATCC procedures and treated with increasing concentrations of abemaciclib mesylate (Compound B) either in the presence or absence of 1 μM of Compound A. The growth of the cells is quantified 48 hours later by a CellTiter-Glo assay (Promega). Growth inhibition at each concentration is calculated and IC50 values are determined from the 4-parameter concentration-response curves.

NCI-H2122 = assay: Cell growth inhibition by CellTiter-Glo assay, NCI-H2122; type: cell-based; conditions: Homo sapiens, Compound B alone, 48 hours
Procedure: as §2, §1

[2] = Compound B 0.05-0.8 μM with or without 1 μM Compound A added 1 day before Compound B, 24 hours after addition
[3] = Compound B 0.05-0.8 μM with or without 1 μM Compound A added simultaneously, 24 hours

SMILES: C[C@H](NC(=O)CCC(F)(F)F)C(=O)N[C@@H]1C(=O)N(CCO)c2ncccc2-c2ccccc21 [Compound A, 4,4,4-trifluoro-N-[(1S)-2-[[(7S)-5-(2-hydroxyethyl)-6-oxo-7H-pyrido[2,3-d][3]benzazepin-7-yl]amino]-1-methyl-2-oxo-ethyl]butanamide]
cell cycle biomarker expression, time course study ([1]; 1 μM Compound A, 24 hours of treatment): Marginal reductions of pHH3, Topo2A, pRB and total RB
cell cycle biomarker expression, concentration-response study [1, 2]: no effect on the expression of these biomarkers
cell cycle biomarker expression, concentration-response study [1, 3]: no effect on the expression of these biomarkers
Geometric Mean tumor volume (NCI-H2122 xenograft; Group 04: Compound A 5 mg/kg W-F-M×2 PO, study day 6): 110.18 mm^3
Geometric Mean tumor volume (NCI-H2122 xenograft; Group 04: Compound A 5 mg/kg W-F-M×2 PO, study day 9): 129.04 mm^3
Geometric Mean tumor volume (NCI-H2122 xenograft; Group 04: Compound A 5 mg/kg W-F-M×2 PO, study day 13): 189.14 mm^3
Geometric Mean tumor volume (NCI-H2122 xenograft; Group 04: Compound A 5 mg/kg W-F-M×2 PO, study day 16): 289.03 mm^3
Geometric Mean tumor volume (NCI-H2122 xenograft; Group 04: Compound A 5 mg/kg W-F-M×2 PO, study day 20): 447.05 mm^3
Geometric Mean tumor volume (NCI-H2122 xenograft; Group 04: Compound A 5 mg/kg W-F-M×2 PO, study day 23): 585.69 mm^3
Geometric Mean tumor volume (NCI-H2122 xenograft; Group 04: Compound A 5 mg/kg W-F-M×2 PO, study day 27): 761.24 mm^3
Geometric Mean tumor volume (NCI-H2122 xenograft; Group 05: Compound A 8 mg/kg W-F-M×2 PO, study day 6): 127.60 mm^3
Geometric Mean tumor volume (NCI-H2122 xenograft; Group 05: Compound A 8 mg/kg W-F-M×2 PO, study day 9): 165.23 mm^3
Geometric Mean tumor volume (NCI-H2122 xenograft; Group 05: Compound A 8 mg/kg W-F-M×2 PO, study day 13): 199.00 mm^3
Geometric Mean tumor volume (NCI-H2122 xenograft; Group 05: Compound A 8 mg/kg W-F-M×2 PO, study day 16): 301.93 mm^3
Geometric Mean tumor volume (NCI-H2122 xenograft; Group 05: Compound A 8 mg/kg W-F-M×2 PO, study day 20): 492.37 mm^3
Geometric Mean tumor volume (NCI-H2122 xenograft; Group 05: Compound A 8 mg/kg W-F-M×2 PO, study day 23): 481.31 mm^3
Geometric Mean tumor volume (NCI-H2122 xenograft; Group 05: Compound A 8 mg/kg W-F-M×2 PO, study day 27): 570.39 mm^3

IC50 (NCI-H441): 970 nM
IC50 (NCI-H2122): 450 nM
SMILES: CCN1CCN(Cc2ccc(Nc3ncc(F)c(-c4cc(F)c5nc(C)n(C(C)C)c5c4)n3)nc2)CC1 [Compound B, N-[5-(4-ethyl-piperazin-1-ylmethyl)-pyridin-2-yl]-[5-fluoro-4-(7-fluoro-3-isopropyl-2-methyl-3H-benzoimidazol-5-yl)-pyrimidin-2-yl]-amine, reference compound]
cell cycle biomarker expression, concentration-response study [1, 2]: concentration-dependent inhibition of pRB (phospho-ser780-Rb), total RB, Topo IIa and pHH3
cell cycle biomarker expression, concentration-response study [1, 3]: concentration-dependent inhibition of pRB (phospho-ser780-Rb), total RB, Topo IIa and pHH3
Geometric Mean tumor volume (NCI-H2122 xenograft; Group 03: Compound B 50 mg/kg QD×14 PO, study day 6): 136.94 mm^3
Geometric Mean tumor volume (NCI-H2122 xenograft; Group 03: Compound B 50 mg/kg QD×14 PO, study day 9): 188.32 mm^3
Geometric Mean tumor volume (NCI-H2122 xenograft; Group 03: Compound B 50 mg/kg QD×14 PO, study day 13): 191.75 mm^3
Geometric Mean tumor volume (NCI-H2122 xenograft; Group 03: Compound B 50 mg/kg QD×14 PO, study day 16): 321.32 mm^3
Geometric Mean tumor volume (NCI-H2122 xenograft; Group 03: Compound B 50 mg/kg QD×14 PO, study day 20): 376.59 mm^3
Geometric Mean tumor volume (NCI-H2122 xenograft; Group 03: Compound B 50 mg/kg QD×14 PO, study day 23): 489.72 mm^3
Geometric Mean tumor volume (NCI-H2122 xenograft; Group 03: Compound B 50 mg/kg QD×14 PO, study day 27): 491.92 mm^3

— patent US11298362B2, “Combination therapy with Notch and CDK4/6 inhibitors for the treatment of cancer” (Eli Lilly and Company, priority 2016, dated 2022)
